The values below come from patent US20180318199A1, “Pharmaceutical Composition Having Anti-Aging Properties against High-Glucose” (TAIWAN LEADER BIOTECH CORP., priority 2017, published 2018).

Assay [1] relates to SIRT-1, SIRT-3 and SIRT-6. As to the kind of experiment: RT-PCR/Q-PCR of SIRT genes in HNDFs. Type of assay: cell-based, human. Conditions: RES, 72 h, no HG. The source says: As shown in the figures, to determine whether ANM regulates HNDF senescence through a SIRT-1-mediated pathway, expression levels of SIRT genes SIRT-1, SIRT-3 and SIRT-6 are is examined.
Total RNA is extracted and subjected to Q-PCR analysis to monitor SIRT-1, SIRT-3 and SIRT-6 expression. Relative mRNA levels are normalized by β-actin mRNA. Previous studies have shown that exposure of endothelial cells to HG rapidly decreases levels of expression of SIRT genes.
Total RNA is extracted from cultured HNDFs using Trizol Reagent (Thermo Fisher Scientific). Q-PCR analysis is performed using Applied Biosystems detection instruments and software. Forward and reverse primers (10 μM), and the working solution SYBR green, is used as a PCR master mix, under the following conditions: 96° C. for 3 minutes followed by 40 cycles at 96° C. for 1 minute, 50° C. for 30 seconds and 72° C. for 90 seconds. GAPDH is used as an internal standard to control for variability in amplification because of differences in starting mRNA concentrations. The copy number of each transcript is calculated as the relative copy number normalized by GAPDH copy number.

In the next assay the test system is HO-1 and NQO-1. As to the kind of experiment: Western blot of HO-1 and NQO-1 in HUVECs. The settings on record: ANM 10 μM or RES 5 μM + HG. Type of assay: cell-based, human. On the procedure: The intracellular ROS level is quantified by utilizing DCFH-DA assay. […] However, treatment of HUVECs with ANM resulted reduced ROS levels (6.1-fold), compared with HUVECs in HG that are not treated with ANM. In addition, in FIG. 9G, western blot analysis is performed to determine the protein expression levels of HO-1 and NQO-1.
(§1) Cells are lysed by either RIPA lysis buffer or nuclear and cytoplasmic extraction reagents (Thermo Fisher Scientific). Protein concentrations are determined by Bio-Rad protein assay reagent (Bio-Rad Laboratories, Hercules, Calif.). Equal amounts of protein samples (60 μg) are separated by 7-12% SDS-PAGE and the separated proteins are transferred onto polyvinylidene […] (PVDC) membrane overnight. The transferred protein membranes are blocked with 5% non-fat dried milk for 30 min, followed by incubation with specific primary antibodies overnight, and either horseradish peroxidase-conjugated goat anti-rabbit or anti-mouse antibodies for 2 h. The blots are detected using VL Chemi-Smart 3000 (Viogene Biotek, Sunnyvale, Calif.) with the enhanced chemiluminescence (ECL) western blotting reagent (Millipore, Billerica, Mass.).
Background: In western blotting, separated proteins are transferred to a membrane and probed.

The subject of another assay is wild-type C. elegans. Put plainly: C. elegans lifespan assay. The assay is classed as in vivo, Caenorhabditis elegans. Conditions: ANM 10 μM or RES 438 μM vs control. The protocol: It has been well documented that high glucose levels decrease the life span of C. elegans by increasing ROS formation and advance glycation end-product modification of mitochondrial proteins. Therefore, it is further investigated whether ANM has a protective effect against hyperglycemia-induced oxidative stress as well as anti-aging effects. Worms are incubated with high glucose (50 mM) with or without ANM […], and controlled for life span evaluation. In FIG. 8B, effect of ANM on the life span of C. elegans under hyperglycemic condition is examined. Age synchronized L1 larvae are transfected to NGM plates which contain HG (50 mM) with or without ANM (10 μM) and worms are developed to adulthood. The survival rate is scored everyday and is expressed as a percentage of survival. […] Results are expressed as mean±S.E.M of three independent experiments. Statistical significance is set at ^ϕP<0.05 as compared to control vs. HG, *P<0.05 as compared to HG vs. HG+sample and ̂P<0.05 as compared to control vs. samples.
Control worms are treated with 0.01% DMSO. All worms are kept 20° C. to develop adulthood. After 6 days, worms are transferred to plates containing glucose are applicable. Surviving and dead animals are counted daily (starting from the first day of adulthood) until all worms had died. […] Worms suffering from internal hatch (a defect in egg-laying) and those that crawled off the NGM plate are not included in the life-span assay. During the reproductive period, adult worms are transferred to fresh NGM plates every day during the progeny production period and then every other day thereafter. Life span assay result is obtained from three independent assays.

A further assay relates to HNDFs. Put plainly: SA-β-gal senescence assay in HG-induced HNDFs. The assay is classed as cell-based, human. On the procedure:
Next, the protective effects of antcins on HG-induced HNDF senescence are examined. In FIG. 2B, cells were incubated with ANA (10 μM), ANH (10 μM) and ANM (10 μM) in the presence of HG (30 mM) for 72 h. Cellular senescence is determined by SA-β-gal activity. […] After cells are co-incubated with HG and antcins (ANA, ANH and ANM) for 72 h, senescence is measured by SA-β-gal assay.
Therefore, in order to examine whether the ROS inhibitory effect may be extended to suppress HG-induced senescence, HG-induced senescenece eliminated by ANM is examined. In FIG. 4B, HNDFs are incubated with ANM (10 μM) or NAC (100 μM) in the presence or absence of HG (30 mM) for 72 h. Cellular senescence is determined by SA-β-gal assay. […] As is shown, cells are co-incubated with HG and ANM or NAC for 72 h.
Senescence-associated β-galactosidase (SA-β-gal) activity is determined in formaldehyde-fixed histochemical staining kit according to the manufacturer's instructions (Cell Signaling Technology, Danvers, Calif.). Briefly, cells are grown in 6-well plates at a density of 5×10^4 cells/well, and incubated with HG or test samples for 48 h (HUVECs) or 72 h (HNDFs). After incubation, cells are stained with SA-β-gal staining solution at pH 6.0 overnight and then the development of blue staining is observed and photographed under a bright-field microscope (Motic Electric Group, Xiamen, P.R. China).

In a further assay the test system is SIRT-1, SIRT-3, SIRT-6. As to the kind of experiment: Western blot of SIRT proteins and phos-SIRT-1 in HNDFs. The settings on record: 72 h. Type of assay: cell-based, human. The protocol: Total cell lysate is extracted and subjected to western blot analysis to monitor SIRT-1, SIRT-3, SIRT-6 protein levels.
(§2) The protein expression levels of SIRT-1, SIRT-6, p21^CIP1, SMP30, p53, FoxO and acetylation of p53 and FoxO1 are determined by western blot analysis.
To further understand the regulation of SIRT-1 by ANM, the effect of ANM on SIRT-1 activation and protein stability is examined under hyperglycemic conditions. In FIG. 7I, cells are incubated with JNK/SAPK or p38 MAPK inhibitors SP600125 (SP, 30 μM) and SB203580 (SB, 30 μM) in the presence of HG for 72 h. The protein expression levels of phos-SIRT-1 and SIRT-1 are determined by western blotting. Results are expressed as mean±S.E.M of three independent experiments. Statistical significance is set at ^ϕP<0.05 as compared to NG vs. HG and *P<0.05 as compared to HG vs. samples. Previous studies have shown that hyperphosphorylation of SIRT-1 at serine 47 (Ser47) is correlated with enhanced endothelial senescence. In addition, persistent activation of JNK1/2 by multiple factors including hyperglycemia induces extensive SIRT-1 proteasome degradation followed by phosphorylation at Ser47. […] Therefore, it is hypothesized that ANM-mediated suppression of JNK1/2 and p38 MAPK activation may have a functional role in the stability of SIRT-1 protein.
as §1

In a further assay the test system is p53 and FoxO1. As to the kind of experiment: Western blot of p53 and FoxO1 acetylation/phosphorylation in HNDFs. Type of assay: cell-based, human. Conditions: pharmacological inhibitor in the presence of HG (FIG. 4G). On the procedure: It is well known that p16^INK4A and p21^CIP1 are regulated by transcription factors p53 and FoxO1 followed by acetylation. […] In addition, p53 phosphorylation at Ser15 by their upstream kinases promotes transcriptional activation in response to DNA damage.
To further examine the phenomenon that HG-induced p53 activation is relayed by the p38 MAPK or JNK/SAPK cascade, cells are incubated with corresponding pharmacological inhibitors, SB203580, SP600125, PD98059 and LY294002 for p38MAPK, JNK/SAPK, ERK1/2 and P13K/AKT, respectively in the presence of HG.
as §2, §1

The next assay relates to Nrf2. Put plainly: ARE luciferase reporter assay (Nrf2 transcriptional activity) in HNDFs. The assay is classed as cell-based, human. Conditions: inhibitor 30 μM 2 h, then ANM 10 μM + HG 30 mM 6 h. The protocol: Therefore, to determine whether ANM augments Nrf2 transcriptional activity, ARE-harboring luciferase reporter assay is used. In FIG. 5E, to determine the Nrf2 transcriptional activity, HNDFs are transiently transfected with ARE promoter construct using lipofectamine and incubated with ANM (10 μM) or NAC (100 μM) in the presence or absence of HG (30 mM) for 6 h. Cell lysates are mixed with luciferase reagents and quantified using an illuminometer. Relative ARE promoter activity is calculated by dividing the relative luciferace unit (RLU) of treated cells by RLU of untreated cells (NG).
Activation of P13K/AKT and mitogen-activated protein kinases (MAPKs), including ERK1/2, JNK/SAPK and p38 MAPK, facilitates Nrf2 transcriptional activation in a variety of human cell lines. […] To elucidate the upstream signaling events involved in ANM-induced Nrf2 transcriptional activity, cells are pre-incubated with pharmacological inhibitors of P13K/AKT (LY294002), ERK1/2 (PD98059), SAPK/JNK (SP600125) and p38MAPK (SB203580) for 2 h and treated with ANM for 6 h in the presence of HG. In FIG. 5G, HNDFs are pre-incubated with AKT, ERK1/2, JNK/SAPK and p38 MAPK inhibitors, including LY294002 (LY, 30 μM), PD98059 (PD, 30 μM), SP600125 (SP, 30 μM) and SB203580 (SB, 30 μM), respectively, for 2 h and then incubated with ANM (10 μM) in the presence of HG (30 mM) for 6 h. Cytoplasmic and nuclear fractions are prepared and subjected to western blot analysis. GAPDH and histone H3 are served as internal controls for the cytoplasmic and nuclear fraction, respectively.
ARE promoter activity is measured using a dual-luciferase reporter assay system (Promega, Madison, Wis.). […] Cells are then transfected with ARE plasmid (Qiagen, Hilden, Germany) using Lipofectamine 2000 (Invitrogen) and incubated for 36 h. […] The cell lysate is prepared and incubated with luciferase agents and the relative luminescence intensity is quantified using a spectrophotometer (Hidex Oy, Turku, Finland).

For the compound `Oc1ccc(C=Cc2cc(O)cc(O)c2)cc1` [RES, resveratrol, reference compound], the “SIRT-6 level (RT-PCR)” value in assay [1] is “remarkable increase”. Besides, in the assay on HO-1 and NQO-1, the “HO-1 expression in HUVECs in HG” value is recorded as “significantly increase”. Further, the “life span of C. elegans under normal condition” value in the assay on wild-type C. elegans was “highly comparable”. For the same compound, in the assay on HNDFs (ANM 10 μM or RES + HG, 72 h), the “SA-β-gal activity, SIRT-1 siRNA transfected cells” value is listed as “remains partially elevated”. Moreover, in the assay with SIRT-1, SIRT-3, SIRT-6 (ANM or RES + HG), the “HG-induced SIRT-1 phosphorylation at Ser47” value is “significantly attenuates”.

Take `C[S+]([O-])c1ccc(-c2nc(-c3ccncc3)c(-c3ccc(F)cc3)[nH]2)cc1` (stereo not drawn) [SB203580, reference compound]: the “HG-induced p16^INK4A expression and p53 phosphorylation, kinase inhibitors” value with p53 and FoxO1 is “reduced”. The “HG-induced SA-β-gal activity, kinase inhibitors” value in the assay on HNDFs (inhibitor 30 μM + HG 30 mM, 72 h (FIG. 4H)) is reported as “barely observed”. For the same compound, the “ANM-induced ARE luciferase activity after inhibitor pretreatment” value in the assay on Nrf2 is on record as “partially or barely inhibits”. Further, the “SIRT-1 phosphorylation and reduction in SIRT-1, kinase inhibitors” value in the assay on SIRT-1, SIRT-3, SIRT-6 (inhibitor 30 μM + HG) is “inhibits”.
